The results in this text go back to patent US20200360455A1 (priority 2018, published 2020).

The subject of the assay is Old mice. Briefly: Wire hang test. Particulars: creatine 120 mg/kg. It is filed as in vivo, mouse. The procedure:
The test was performing using a wire having a diameter of 2 mm installed at a height of 25 cm. Each mouse was placed on the wire using only the front legs, and the time of hanging without falling was measured. The time when the mouse was suspended and then dropped was measured and the test was conducted for a maximum of 120 seconds. In this way, each mouse was repeated 3 times at approximately 20 minute intervals. The results of each mouse were analyzed for the average value of the first and longest hanging time in three trials. […] In addition, creatine 120 mg/kg (creatine-120) was administered to mice as a positive control, and the test was conducted under the same conditions.

On to `CN(CC(=O)O)C(=N)N` [creatine], for which the “wire hang effect of positive control vs aging mouse group” value was “more effective than the aging mouse group”.
